Structures can show the parent of a compound that is named as a salt. Where two headings read alike, the source gives them in different places. Peptide text beside a SMILES is read from it. * marks the point of attachment. Cbz = O=C(OCc1ccccc1)*
Columns and labels:
Vero E6 EGFP cells [1] = experiment: Cytotoxicity assessment in dose response without virus infection; settings: cytotoxicity in the absence of virus, Vero E6 EGFP, 33 µM to 10 nM
in vitro = settings: Chlorocebus sabaeus (African green monkey)
SARS-CoV-2 [2] = experiment: microbe, parasite or virus in culture
SARS-CoV-2 [3] = test system: SARS-CoV-2
[4] = Cytotoxicity assessment in dose response without virus infection; settings: Chlorocebus sabaeus (African green monkey)
Vero E6 EGFP cells [5] = test system: Vero E6 EGFP cells
SARS-CoV-2 [6] = experiment: Primary anti-cytopathicity assay development: control compound profiling, 384-well plates; type: cell-based, Severe acute respiratory syndrome coronavirus 2; settings: mean
coronavirus OCR43 = test system: coronavirus OCR43; set-up: method as in PMID 33324406; settings: LLC-MK2 cells; cited from earlier work
SARS CoV-2 = test system: SARS CoV-2; set-up: method as in PMID 32473310; settings: VERO-E6 cells; cited from earlier work
[7] = Severe acute respiratory syndrome coronavirus 2, Vero C1008, 96 h
[8] = ratio of cytotoxic to anti-cytopathic effects
[9] = Severe acute respiratory syndrome coronavirus 2, read-out: Average IC50, d3 of incubation, 4000 cells seeded
[10] = Severe acute respiratory syndrome coronavirus 2, read-out: Average IC50, d3 of incubation, 8000 cells seeded
[11] = Severe acute respiratory syndrome coronavirus 2, read-out: Average IC50, d4 of incubation, 4000 cells seeded
[12] = Severe acute respiratory syndrome coronavirus 2, read-out: Average IC50, d4 of incubation, 8000 cells seeded
[13] = Severe acute respiratory syndrome coronavirus 2, read-out: Average IC50, d5 of incubation, 4000 cells seeded
[14] = Severe acute respiratory syndrome coronavirus 2, read-out: Average IC50, d5 of incubation, 8000 cells seeded

Molecule: 3'-fluoro-benzyl-spiperone
- CC50 (Vero E6 EGFP cells [1]): 27.4 µM

Molecule: Nc1cc2c3ccccc3ccc2c2ccccc12 [6-amino-chrysene]
- CC50 (in vitro): > 33 µM
- IC50 (SARS-CoV-2 [2]; [7]): 11.6 µM
- SI (CC50/IC50) (SARS-CoV-2 [3]; [8]): 2.84

Molecule: Nc1nc2nn[nH]c2c(=O)[nH]1 [8-Azaguanine]
- CC50 (in vitro): 10.4 µM
- IC50 (SARS-CoV-2 [2]; [7]): 3.72 µM
- SI (CC50/IC50) (SARS-CoV-2 [3]): 2.79

Molecule: CCN1CCN(Cc2ccc(-c3cc4c(N[C@H](C)c5ccccc5)ncnc4[nH]3)cc2)CC1 [AEE788]
- IC50 (SARS-CoV-2 [2]; [7]): 3.94 µM
- SI (CC50/IC50) (SARS-CoV-2 [3]; [8]): 8.38
- CC50 at 4 days [4]: > 33 µM

Molecule: Cc1cc(O[C@@H](CCC(F)(F)F)c2ccc(C(=O)NCCC(=O)O)cc2)cc(C)c1-c1ccc(C(C)(C)C)cc1 [Adomeglivant]
- CC50 at 4 days (in vitro): > 33 µM

Molecule: CCN(CC)Cc1cc(Nc2ccnc3cc(Cl)ccc23)ccc1O [Amodiaquine]
- IC50 (SARS-CoV-2 [2]; [7]): 4.07 µM
- SI (CC50/IC50) (SARS-CoV-2 [3]): 4.12
- CC50 at 4 days [4]: 16.8 µM

Molecule: CC(=O)[C@]1(N)Cc2c(O)c3c(c(O)c2[C@@H](O[C@H]2C[C@H](O)[C@H](O)CO2)C1)C(=O)c1ccccc1C3=O [Amrubicin]
- CC50 (in vitro): > 33 µM
- IC50 (SARS-CoV-2 [2]; [7]): 0.33 µM
- SI (CC50/IC50) (SARS-CoV-2 [3]; [8]): 100.00

Molecule: CC(C)COCC(CN(Cc1ccccc1)c1ccccc1)N1CCCC1 (centres unmarked) [Bepridil]
- CC50 at 4 days [4]: 23.4 µM

Molecule: COc1ccc2c(c1)[C@]1(C[C@H]1c1ccc3c(/C=C/c4ccc(CN5C[C@@H](C)O[C@@H](C)C5)cc4)n[nH]c3c1)C(=O)N2 [CFI-400945]
- CC50 at 4 days (in vitro): > 33 µM

Molecule: O=C(c1c2ccccc2cc2ccccc12)N1CCC(N2CCC[C@@H](C(=O)N3CCOCC3)C2)CC1 [CP-640186 (hydro-chloride)]
- CC50 (Vero E6 EGFP cells [5]): 10.9 µM

Molecule: O=C(c1c2ccccc2cc2ccccc12)N1CCC(N2CCC[C@@H](C(=O)N3CCOCC3)C2)CC1 [CP-640186]
- CC50 (Vero E6 EGFP cells [1]): 10.2 µM

Molecule: CCN(CC)CCCC(C)Nc1ccnc2cc(Cl)ccc12 (centres unmarked) [Chloroquine, chloroquine]
- IC50 (SARS-CoV-2 [6]; [9]): 11.3 µM
- IC50 (SARS-CoV-2 [6]; [10]): 8.69 µM
- IC50 (SARS-CoV-2 [6]; [11]): 13.4 µM
- IC50 (SARS-CoV-2 [6]; [12]): 13.5 µM
- IC50 (SARS-CoV-2 [6]; [13]): 13.5 µM
- IC50 (SARS-CoV-2 [6]; [14]): 17.1 µM

Molecule: CCN(CC)CCOc1ccc(C(=C(Cl)c2ccccc2)c2ccccc2)cc1 [Clomiphene citrate]
- CC50 at 4 days [4]: > 33 µM

Molecule: CCN(CC)c1ccc2cc(-c3nc4ccccc4[nH]3)c(=O)oc2c1 [Coumarin 7]
- IC50 (SARS-CoV-2 [3]): 0.36 µM
- SI (CC50/IC50) (SARS-CoV-2 [3]): 91.67

Molecule: C[C@@H]1C[C@@H]([C@H](O)CC2CC(=O)NC(=O)C2)C(=O)[C@@H](C)C1 [Cycloheximide]
- CC50 (in vitro): 10.2 µM

Molecule: Nc1ncnc2c1ncn2[C@@H]1CC[C@@H](O)[C@H]1O [DHCaA]
- CC50 (Vero E6 EGFP cells [5]): 15.7 µM

Molecule: O=C1OC2(c3ccc(O)cc3Oc3cc(O)ccc32)c2ccccc21 [Fluorescein]
- IC50 (SARS-CoV-2 [2]; [7]): 0.67 µM
- SI (CC50/IC50) (SARS-CoV-2 [3]; [8]): 49.25
- CC50 at 4 days [4]: > 33 µM

Molecule: CN1CCN(C2CCN(C(=O)Nc3cc(Oc4ccc(NC(=O)C5(C(=O)Nc6ccc(F)cc6)CC5)c(F)c4)ccn3)CC2)CC1 [Golvatinib (E7050), Golvatinib]
- CC50 at 4 days (in vitro): > 33 µM
- IC50 (SARS-CoV-2 [2]; [7]): 5.89 µM
- SI (CC50/IC50) (SARS-CoV-2 [3]; [8]): 5.60

Molecule: CCCCN(CCCC)CCC(O)c1cc2c(Cl)cc(Cl)cc2c2cc(C(F)(F)F)ccc12 (centres unmarked) [Halofantrine hydrochloride]
- CC50 at 4 days [4]: > 33 µM

Molecule: CCN(CCO)CCCC(C)Nc1ccnc2cc(Cl)ccc12 (centres unmarked) [Hydroxychloroquine, hydroxychloroquine]
- IC50 (SARS-CoV-2 [6]; [9]): 16.4 µM
- IC50 (SARS-CoV-2 [6]; [10]): 15.8 µM
- IC50 (SARS-CoV-2 [6]; [11]): 21 µM
- IC50 (SARS-CoV-2 [6]; [12]): 25.8 µM
- IC50 (SARS-CoV-2 [6]; [14]): 43.6 µM

Molecule: Cc1cc(O)c2c(=O)c3c(O)cc(O)c4c5c(O)cc(O)c6c(=O)c7c(O)cc(C)c8c1c2c(c34)c(c78)c65 [Hypericin]
- CC50 (in vitro): 1.31 µM
- IC50 (SARS-CoV-2 [2]; [7]): 0.25 µM
- SI (CC50/IC50) (SARS-CoV-2 [3]; [8]): 5.24

Molecule: CCCCCCCCCCCCCCOc1ccc(C(=O)O)o1 [KD-023]
- IC50 (SARS-CoV-2 [3]): 4.04 µM
- SI (CC50/IC50) (SARS-CoV-2 [3]; [8]): 8.17

Molecule: Cc1cccc(C)c1OCC(=O)N[C@@H](Cc1ccccc1)[C@@H](O)C[C@H](Cc1ccccc1)NC(=O)[C@H](C(C)C)N1CCCNC1=O [Lopinavir, lopinavir]
- IC50 (SARS-CoV-2 [6]; [9]): 9.21 µM
- IC50 (SARS-CoV-2 [6]; [10]): 7.58 µM
- IC50 (SARS-CoV-2 [6]; [11]): 11.3 µM
- IC50 (SARS-CoV-2 [6]; [12]): 12 µM
- IC50 (SARS-CoV-2 [6]; [14]): 21.1 µM

Molecule: CC(C)C[C@@H](C=O)NC(=O)[C@H](CC(C)C)NC(=O)[C@H](CC(C)C)NC(=O)OCc1ccccc1 [MG-132] (Cbz-Leu-Leu-Leu-aldehyde)
- CC50 at 4 days [4]: 2.9 µM

Molecule: Cc1ccc(NC(=O)c2ccc(CN3CCN(C)CC3)cc2)cc1Nc1nc(-c2cccnc2)cs1 [Masitinib (AB1010), Masitinib]
- IC50 (SARS-CoV-2 [2]; [7]): < 20 µM
- CC50 at 4 days [4]: > 33 µM

Molecule: CC(C)(C)NCc1ccc(Nc2ccnc3cc(Cl)ccc23)cc1O [N-tert-Butylisoquine]
- CC50 at 4 days (in vitro): 12.4 µM

Molecule: O=C(Nc1ccc([N+](=O)[O-])cc1Cl)c1cc(Cl)ccc1O [Niclosamide]
- IC50 (SARS-CoV-2 [2]; [7]): 4.1 µM
- SI (CC50/IC50) (SARS-CoV-2 [3]): 8.05
- CC50 at 4 days [4]: > 33 µM

Molecule: Cc1[nH]c(/C=C2\C(=O)Nc3ccc(S(=O)(=O)Cc4c(Cl)cccc4Cl)cc32)c(C)c1C(=O)N1CCC[C@@H]1CN1CCCC1 [PHA-665752]
- CC50 (in vitro): > 33 µM

Molecule: O=C(c1ccc(OCCN2CCCCC2)cc1)c1c(-c2ccc(O)cc2)sc2cc(O)ccc12 [Raloxifene hydrochloride]
- activity against coronavirus OCR43 (coronavirus OCR43): active
- activity in phenotypic assay of SARS CoV-2 viral infection (SARS CoV-2): active
- IC50 (SARS-CoV-2 [2]; [7]): < 20 µM
- IC50 (SARS-CoV-2 [3]): 15.4 µM
- SI (CC50/IC50) (SARS-CoV-2 [3]): 2.14
- CC50 at 4 days [4]: > 33 µM

Molecule: CCC(CC)COC(=O)[C@H](C)N[P@](=O)(OC[C@H]1O[C@@](C#N)(c2ccc3c(N)ncnn23)[C@H](O)[C@@H]1O)Oc1ccccc1 [Remdesivir, remdesivir]
- IC50 (SARS-CoV-2 [6]; [9]): 2.73 µM
- IC50 (SARS-CoV-2 [6]; [10]): 1.56 µM
- IC50 (SARS-CoV-2 [6]; [11]): 3.74 µM
- IC50 (SARS-CoV-2 [6]; [12]): 2.27 µM
- IC50 (SARS-CoV-2 [6]; [13]): 4.67 µM
- IC50 (SARS-CoV-2 [6]; [14]): 2.99 µM
- IC50 (SARS-CoV-2 [2]; Severe acute respiratory syndrome coronavirus 2, Vero C1008, read-out: IC50 (%Confluence versus compound concentration), positive control, curve fitting example Fig. 4): 1.7 µM

Molecule: Cc1cccc(Nc2nc(-c3ccncc3)cs2)c1 [STF-62247]
- CC50 (Vero E6 EGFP cells [1]): 31.5 µM

Molecule: COc1cc2c(N3CCN(C(=O)Nc4ccc(OC(C)C)cc4)CC3)ncnc2cc1OCCCN1CCCCC1 [Tandutinib (MLN518), Tandutinib]
- CC50 (in vitro): > 33 µM
- IC50 (SARS-CoV-2 [3]): < 20 µM

Molecule: COc1ccc2cc1Oc1ccc(cc1)C[C@H]1c3cc(c(OC)cc3CCN1C)Oc1c(OC)c(OC)cc3c1[C@H](C2)N(C)CC3 [Tetrandrine (Fanchinine), Tetrandrine]
- CC50 at 4 days [4]: > 33 µM

Molecule: COc1cc(C[C@H]2c3cc(OC)c(OC)cc3CCN2C)c(Oc2cc3c(cc2OC)-c2c(OC)c(OC)cc4c2[C@H](C3)N(C)CC4)cc1OC [Thaliblastine]
- IC50 (SARS-CoV-2 [3]): 3.87 µM
- SI (CC50/IC50) (SARS-CoV-2 [3]; [8]): 8.53

Molecule: Nc1c[nH]c(=O)c2cc(-c3ccccc3)sc12 [Thieno-pyridone]
- CC50 (Vero E6 EGFP cells [5]): > 33 µM
- IC50 (SARS-CoV-2 [3]): 5.26 µM
- SI (CC50/IC50) (SARS-CoV-2 [3]; [8]): 6.27

Molecule: Nc1nc2c(ncn2[C@@H]2O[C@H](CO)[C@@H](O)[C@H]2O)c(=S)[nH]1 [Thioguanosine]
- CC50 (in vitro): > 33 µM

Molecule: COc1cc(NCc2ccc3nc(N)nc(N)c3c2C)cc(OC)c1OC [Trimetrexate]
- IC50 (SARS-CoV-2 [3]): < 20 µM
- CC50 at 4 days [4]: 1.99 µM

Molecule: CNCc1ccc(-c2cc(-c3nc(-c4ccc(S(=O)(=O)C(C)C)cc4)cnc3N)on2)cc1 [VE-822]
- CC50 at 4 days (in vitro): 10 µM
- IC50 (SARS-CoV-2 [3]): < 20 µM
- SI (CC50/IC50) (SARS-CoV-2 [3]; [8]): 3.75

Molecule: CC(C)(O)CNc1ncc(-c2ccnc(Nc3ccnc(Cl)c3)n2)c(CC2CC2)n1 [VPS34-IN-1]
- CC50 (in vitro): 26.8 µM

Molecule: Cc1c(O)cccc1C(=O)N[C@@H](CSc1ccccc1)[C@H](O)CN1C[C@H]2CCCC[C@H]2C[C@H]1C(=O)NC(C)(C)C [[…]]
- CC50 (in vitro): > 33 µM

Molecule: OCCNC1CCCc2c1[nH]c1ccc(-c3ccccc3)cc21 (centres unmarked) [casin]
- CC50 (Vero E6 EGFP cells [5]): > 33 µM

Molecule: Rhodamine-123
- IC50 (SARS-CoV-2 [3]): 0.8 µM
- SI (CC50/IC50) (SARS-CoV-2 [3]; [8]): 41.25
